The values that follow come from ChEMBL document CHEMBL5236657, “Synthesis and pharmacological validation of a novel radioligand for the orphan GPR88 receptor” (Bioorg Med Chem Lett, 2023).

Test [1] addresses T1, G protein-coupled receptor 88 (Homo sapiens, UniProt Q9GZN0).
Description: Agonist activity at GPR88 (unknown origin) transfected in HEK293 cells assessed as cAMP level by GloSensor cAMP assay
In test [2] the target is T1, G protein-coupled receptor 88. The source holds these as a separate data set.
Description: Displacement of [3H]RTI-33 from GPR88 (unknown origin) by competition binding assay

As usually defined, the pEC50 is the EC50 on a negative log10 scale, so that one unit is a factor of ten. The low end stands for a large EC50, the high end for a small EC50. A word on the pKi: it is −log10 of the Ki, conventionally taken in molar units.

Structures are written as SMILES. pEC50, pKi: −log10 of the molar value.

T1 sequence (Q9GZN0 whole entry): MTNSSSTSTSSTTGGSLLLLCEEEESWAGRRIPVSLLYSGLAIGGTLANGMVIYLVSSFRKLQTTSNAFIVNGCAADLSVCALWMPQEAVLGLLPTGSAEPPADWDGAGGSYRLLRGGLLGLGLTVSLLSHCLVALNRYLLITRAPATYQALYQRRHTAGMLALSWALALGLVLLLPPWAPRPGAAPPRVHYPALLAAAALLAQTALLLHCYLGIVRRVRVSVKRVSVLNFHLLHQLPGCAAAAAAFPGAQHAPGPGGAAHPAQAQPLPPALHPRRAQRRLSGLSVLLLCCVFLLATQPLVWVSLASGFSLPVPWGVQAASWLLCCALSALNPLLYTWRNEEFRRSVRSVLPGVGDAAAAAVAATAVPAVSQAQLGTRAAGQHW

In test [1], `CCCC(C)COc1ccc([C@H](CN)NC(=O)[C@@H](C)c2ccccc2)cc1` (some centres not stated) had a pEC50 of 6.52. The same molecule showed a pKi in test [2] of 6.66.
